# Experiments:
# [1] = tested on: acetylation of histone H3; assay: Western blot of acetylated histones in bone marrow after HDACi administration (HDACi activity); assay type: in vivo, mouse; conditions: 10 h after first dose and 5 h after second dose, s.c., TSA 0.5 + 0.5 mg/kg, VPA 600 + 300 mg/kg
# Protocol: […] or spleens were harvested at 10 h.
# TSA is not selective and is expected to increase acetylation of histones non-specifically. FIG. 1 is a graph showing the acetylation of histone H3 relative to a beta-actin control in test samples. […] Bars indicate individual mice.
# [2] = tested on: BALB/c mice; assay: Lethality / survival after total-body irradiation (TBI); assay type: in vivo
# Protocol: All studies were performed with prior approval and in accordance with institutional and national standards of animal care. The studies were approved by an Institutional Animal Care and Use Committee (“IACUC”) and were performed in an accredited AAALAC facility. Male BALB/c mice (Charles River Laboratories) 8 to 10 weeks old were allowed to acclimate for 1 week prior to the start of the study. Mice were maintained in environment-controlled (temperature and lighting) animal facilities, provided food and water ad libitum, and randomly assigned to experimental groups.
# TBI was delivered using a 185 TBq (5000 Ci) ^137Cs source (Mark I, J. L. Shepherd and Associates, San Fernando, Calif.). Doses ranged from sublethal exposures of 5.5 Gy to lethal exposures of 6.5 Gy and a supralethal exposure of 7.0 Gy. The dose rate was approximately 1 Gy per minute.
# Survival was measured in mice after TBI with and without HDACi. Groups of mice were exposed to 6.5 or 7.0 Gy alone or in combination with HDACi, as described above. Survival was defined as the time from irradiation to the time of euthanasia, which occurred when animals had lost 20% or more of their body weight.
structure (smiles),measurement,setting,value
"CC(/C=C/C(=O)NO)=C\[C@@H](C)C(=O)c1ccc(N(C)C)cc1 [TSA, trichostatin-A]",increase in acetylated form of histone H3 relative to the beta-actin control,[1],three to four-fold increase
same,survival,"[2]; 7 Gy TBI, TSA 0.5 mg/kg 24 h before TBI (FIG. 5)",increased survival
same,lethality (time for mice to lose 20% or more of their weight),[2]; after TBI,reduce lethality in a dose-dependent manner
